Experiments:
Format in all cases: in vivo, Arabidopsis thaliana
Arabidopsis seedlings [1] = assay: Somatic embryogenesis from germinated Arabidopsis seeds in liquid medium with 1 μM 2,4-D (containers)
Excerpt: The chemical screen was based on a modified version of an Arabidopsis somatic embryogenesis protocol that uses germinated seeds as explants (see Kobayashi et al., 2010 Kobayashi T, Nagayama Y, Higashi K and Kobayashi M. (2010). Establishment of a tissue culture system for somatic embryogenesis from germinating embryos of Arabidopsis thaliana Plant Biotech. 27: 359-364). In the original protocol, seeds were germinated on solid medium for one day, then the embryos were removed from the seed coat and transferred to solid media containing 4.5 μM 2,4-D to stimulate somatic embryo development. In this example, the protocol is simplified by germinating and culturing the seeds continuously in liquid medium containing 1 μM 2,4-D. Under optimized culture conditions (circa 30 seeds in 30 ml medium in 100 ml containers) approximately 18% of Col0 seeds form somatic embryos.
Approximately 10 surface-sterilized Columbia (Col-0) seeds were added to each well. The seeds were stratified at 4° C. in the dark for two days and then grown in on a rotary shaker (100 rpm/min) on a 16 h/8 h day/night cycle at 25° C. The number of seedlings that formed somatic embryos was counted two weeks later. Candidate compounds identified in the first screen were reordered (Chembridge or Maybridge), and re-tested in a second screen under the same conditions as the primary screen, but with a larger sample number (one 96-well microtitre plate/compound). Positive compounds were analysed using ChemMine (http//bioweb.ucr.edu/ChemMineV2/), ChemSpider (http//www.chemsider.com/) and the ZINC database (http://zinc.docking.org) for analogues with a known biological function.
All subsequent experiments were performed under the conditions described above, but using 100 ml containers (Greiner) containing 30 ml of medium media using approximately 30 seeds/container. All hormones were ordered from Duchefa and Dicamba from Sigma-Aldrich.

Arabidopsis seedlings [2] = assay: NAA induced somatic embryogenesis with or without C#3
Method: The ability of C#3 to enhance embryogenesis in the presence of other auxins was tested; namely the synthetic auxin naphthalene-1-acetic acid (NAA). […] C#3 therefore enhances the developmental responses that are activated by auxin treatment. Compound C#3 is therefore able to potentiate the effect of other auxins.

germinating seeds = assay: Developmental competence: C#3 added at different time points after start of culture
Method: The competence of an explant for in vitro regeneration is determined for a large part by its developmental state. The developmental competence of germinating seedlings to respond to C#3 was examined by adding C#3 at different time points after the start of culture. Seeds were stratified at 4° C. in media containing 1 μM 2,4-D. 25 μM C#3 or the equivalent volume of DMSO (control) was added to the media at different time points after the cultures were transferred to 25° C. The number of seedlings with somatic embryos was determined after two weeks of culture.

Arabidopsis seedlings [3] = assay: Time course of somatic embryo development, morphology and ENOD4L::GFP / LEC1::LEC1:GFP embryo markers
Method: The effect of the compounds on seedlings, without 2,4-D, was tested by germinating seedlings on MS10 solidified with 1% agar, and supplemented with 25 μM compound or DMSO. The ENOD4L promoter comprises a 1035 bp promoter from Brassica napus (AB098076.1), which was cloned in front of green fluorescent protein (GFP). A 3110 bp DNA fragment comprising 1292 bp upstream of the LEC1 translational start site and the entire LEC1 protein coding region was cloned in front of green fluorescent protein (GFP). These vectors were transformed to Arabidopsis ecotype Columbia (Col-0).
Control and C#3-treated cultures were examined at different time points in their development to determine the effect of C#3 on the course of somatic embryo development. Differences between the control and C#3-treated cultures were visible at about four days of culture. The epidermal and cortex cells of the root elongation zone and hypocotyl in the control seedlings increased in size, but not in the C#3-treated seedlings. On the sixth day of culture the differences between the two cultures was more pronounced. […] Callus was present on the tips of the cotyledons in circa 10% of the control seedlings, and up to 70% of the C#3 treated seedlings. This callus comprised loose, large cells on the outside, and smaller, denser cells on the on inside.
The timing and location of somatic embryo formation in control and compound-treated cultures was examined in more detail using two early embryo expressed marker genes, ENOD4-like (ENOD4L::GFP), and LEAFY COTYLEDON1 (LEC1::LEC1:GFP). Expression of ENOD4L::GFP and LEC1:GFP in zygotic embryos was observed from the zygote- and two-celled embryo proper stage onward, respectively. […] The GFP-positive sectors increased in size over the next few days, and on the sixth day of culture, GFP-positive globular embryos could be distinguished. The only difference between the C#3-treated and control cultures with respect to embryo marker expression was the number of seedlings displaying GFP fluorescence, which was higher in the C#3-treated cultures.

Arabidopsis seedlings [4] = assay: Somatic embryo formation at 0 to 2 μM 2,4-D with or without C#3
Excerpt: 2,4-D is widely used to induce somatic embryogenesis from plant explant. In Arabidopsis immature zygotic embryos occasionally form somatic embryos when grown in basal medium, while germinating embryos or other vegetative tissues are unable to form embryos. […] Compound #3 therefore potentiates the effect of auxin 2,4-D. As shown in the micrograph in FIG. 7B, at the lowest effective concentration of C#3, areas of dense, light green embryogenic tissue (arrows) were formed, rather than histodifferentiated, bipolar somatic embryos.

[5] = 25 μM compound, 1 μM 2,4-D, FIG. 1

Cc1ccccc1N(C)S(=O)(=O)c1ccc(Cl)cc1 [C#3, 4-chloro-N-methyl-N-(2-methylphenyl)benzenesulfonamide]
level of SE, percentage of seedlings with somatic embryos, compared to control of 1 μM 2,4-D alone (Arabidopsis seedlings [1]; [5]): significantly increases the level of SE
potency as inducer of SE (Arabidopsis seedlings [1]; [5]): particularly potent inducers
seedlings with somatic embryo development (Arabidopsis seedlings [1]; 10 to 50 μM C#3, 1 μM 2,4-D, control circa 20%): approximately 70%
number of somatic embryo-producing seedlings in different Arabidopsis ecotypes (Arabidopsis seedlings [1]; ecotypes other than Col0): enhanced the number of somatic embryo-producing seedlings
rank of percentage of seedlings with somatic embryos among screened compounds (Arabidopsis seedlings [1]; in presence of 2,4-D): induced the highest percentage of seedlings with somatic embryos
level of SE with increasing concentrations of compound (Arabidopsis seedlings [1]; none to 50 μM, fixed 1 μM 2,4-D, FIG. 5): increases the level of SE
effect on NAA induced somatic embryogenesis (Arabidopsis seedlings [2]; 25 μM C#3 with 10 μM NAA): enhanced
time of addition giving best response (germinating seeds; 25 μM C#3, 1 μM 2,4-D, scored after two weeks, FIG. 6): within the first two days of culture
enhancement of somatic embryogenesis on late addition (germinating seeds; 25 μM C#3 added after four days of culture): reached control levels
number of seedlings displaying GFP fluorescence versus control (Arabidopsis seedlings [3]; embryo marker expression): higher
first detection of ENOD4L::GFP and LEC1:GFP marker expression (Arabidopsis seedlings [3]; region of the shoot meristem): starting from day four of culture
callus formation in root/hypocotyl region (Arabidopsis seedlings [3]; sixth day of culture): formed a large, connected mass of vascular-derived callus
cell loosening and detachment in hypocotyl and root (Arabidopsis seedlings [3]; sixth day of culture): to a lesser extent than the control
seedlings with callus on the tips of the cotyledons (Arabidopsis seedlings [3]; sixth day of culture, control circa 10%): up to 70%
number of embryogenic seedlings compared to control cultures (Arabidopsis seedlings [3]; tenth day of culture): much higher
somatic embryo formation in the absence of 2,4-D (Arabidopsis seedlings [4]; 25 μM C#3, no 2,4-D, FIG. 7A): not able to induce somatic embryo formation
somatic embryo formation at all tested 2,4-D concentrations (Arabidopsis seedlings [4]; 25 μM C#3, up to 2 μM 2,4-D): did enhance somatic embryo formation

O=C(O)COc1ccc(Cl)cc1Cl [2,4-D, 2,4 dichlorophenoxyacetic acid, reference compound]
seeds forming somatic embryos (Arabidopsis seedlings [1]; 1 μM 2,4-D alone, Col0, circa 30 seeds in 30 ml medium): approximately 18%

O=C(O)Cc1cccc2ccccc12 [NAA, naphthalene-1-acetic acid, reference compound]
frequency of somatic embryogenesis with NAA alone (Arabidopsis seedlings [2]; 10 μM NAA, FIG. 8): induced a low frequency of somatic embryogenesis

Reference: US20150291517A1, “BENZENESULFONAMIDE COMPOUNDS FOR SOMATIC EMBRYOGENESIS IN PLANTS” (priority 2012, published 2015)
